The values that follow come from the supplement of paper PMC11061612.

What all share (experiment): Bliss excess, mean over the matrix (fraction); higher = more synergy
Experiment [1] has as its system U-118-MG (Low Grade Glioma). The gist of the method:
(§1)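 Cell lines grown in DMEM/F12 or RPMI with 10% FBS were plated in 1536-well plates and held 24 hours at 37°C, 5% CO2 before 72 hours of exposure to two-drug dose matrices, with DMSO typically at 0.2%. CellTiter-Glo 2.0 luminescence gave viability, which was converted to inhibition. Vehicle wells were set to 0 and blank wells to 1. Combination Emax is the second-highest inhibition in the matrix, and Bliss excess is the observed combination effect minus the expected EA + EB − EA·EB, where EA and EB are the single-agent effects.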

Experiment [2] deals with PA-TU-8902 (Pancreatic Carcinoma). An outline of the steps: as §1
Experiment [3] concerns JHH-6 (Hepatocellular Carcinoma). The gist of the method: as §1
The subject of experiment [4] is DOK (Oral Cavity Carcinoma). An outline of the steps: as §1
Experiment [5] relates to BICR78 (Oral Cavity Carcinoma). The gist of the method:
as §1

Experiment [6] relates to EFM-192A (Breast Carcinoma). An outline of the steps: as §1
Experiment [7] relates to ETK-1 (Biliary Tract Carcinoma). An outline of the steps: as §1
For experiment [8], the system named is HOP-92 (Non-Small Cell Lung Carcinoma). An outline of the steps: as §1
In a further experiment the test system is EW-22 (Ewing's Sarcoma). An outline of the steps:
as §1

For the next experiment, the system named is A172 (Glioblastoma). The gist of the method:
as §1

In experiment [9] the test system is MEG-01 (Chronic Myelogenous Leukemia). The gist of the method:
as §1

For experiment [10], the system named is SK-UT-1 (Other Solid Carcinomas). The gist of the method:
as §1

Experiment [11] deals with YT (Other Blood Carcinomas). An outline of the steps:
as §1

Experiment [12] has as its system CAL-39 (Other Solid Carcinomas). An outline of the steps: as §1
Experiment [13] relates to WSU-DLCL2 (B-Cell Non-Hodgkin's Lymphoma). An outline of the steps:
as §1

Experiment [14] deals with SLVL (B-Cell Non-Hodgkin's Lymphoma). The gist of the method:
as §1

In another experiment the test system is SK-MEL-1 (Melanoma). The gist of the method:
as §1

Experiment [15] has as its system HCT-116 (Colorectal Carcinoma). An outline of the steps:
as §1

Experiment [16] relates to GDM-1 (Acute Myeloid Leukemia). The gist of the method:
as §1

Take `COc1nnc2ccc(N3CCC(c4ccc(OCCN5CCN(C)C(=O)[C@H]5C)cc4)CC3)nn12` [AZD5153] + Cn1cnc2c(F)c(Nc3ccc(Br)cc3Cl)c(C(=O)NOCCO)cc21 [Selumetinib] (first compound max 1 µM, 7x7, partner max 10 µM): the Bliss excess was -0.016 in [1]; -0.0869 in [2]; 0.0053 in experiment [3]; -0.0297 in experiment [4]; -0.0454 in experiment [5]; -0.0096 in [6]. The Bliss excess in experiment [7] was -0.0451; in experiment [8], 0.0604; in the experiment with EW-22 (Ewing's Sarcoma), -0.0668; in the experiment with A172 (Glioblastoma), -0.0304; in experiment [9], -0.0222; in experiment [10], 0.0089. Also, the Bliss excess is -0.0383 in experiment [11]; -0.0175 in experiment [12]; -0.0365 in [13]; -0.0385 in experiment [14]; 0.0933 in the experiment on SK-MEL-1 (Melanoma); -0.029 in [15]. Besides, the Bliss excess in [16] is -0.0266.
Consider `NC1(C(=O)N[C@@H](CCO)c2ccc(Cl)cc2)CCN(c2ncnc3[nH]ccc23)CC1` [Capivasertib] + CC(=O)c1c(C)c2cnc(Nc3ccc(N4CCNCC4)cn3)nc2n(C2CCCC2)c1=O [Palbociclib] (first compound max 10 µM, 7x7, partner max 10 µM), for which the Bliss excess was -0.0154 in [1]; -0.0606 in [2]; -0.0503 in [3]; 0.016 in experiment [4]; -0.0093 in [5]; -0.0334 in experiment [6]. The Bliss excess in experiment [7] was -0.0711; in experiment [8] it was 0.0322; with EW-22 (Ewing's Sarcoma), -0.0152; in the experiment with A172 (Glioblastoma), -0.0183; in experiment [9], -0.0355; in experiment [10], -0.0009. Further, the Bliss excess in experiment [11] is -0.0344; in [12], 0.0167; in experiment [13] it was 0.0205; in [14], -0.024; in the experiment with SK-MEL-1 (Melanoma), -0.0307; in experiment [15], 0.01. Moreover, the Bliss excess in [16] stood at 0.0262.
With `NC1(C(=O)N[C@@H](CCO)c2ccc(Cl)cc2)CCN(c2ncnc3[nH]ccc23)CC1` [Capivasertib] + CC(C)n1c(=O)n(C)c2cnc3cc(F)c(-c4ccc(OCCCN5CCCCC5)nc4)cc3c21 [AZD1390] (first compound max 10 µM, 7x7, partner max 0.3 µM), the Bliss excess in experiment [1] was -0.0405; in experiment [2], -0.0859; in experiment [3], -0.0908; in experiment [4], -0.0428; in experiment [5] it was -0.0552; in [6], -0.062. Further, the Bliss excess in experiment [7] is -0.0189; in experiment [8] it was -0.0238; in the experiment with EW-22 (Ewing's Sarcoma), -0.0613; in the experiment on A172 (Glioblastoma), -0.0965; in experiment [9], -0.0245; in experiment [10], -0.0017. Also, the Bliss excess was -0.0228 in experiment [11]; -0.0731 in experiment [12]; 0.0106 in experiment [13]; -0.0671 in experiment [14]; -0.0207 in the experiment with SK-MEL-1 (Melanoma); -0.0263 in experiment [15]. Moreover, the Bliss excess in experiment [16] is -0.0904.
`NC1(C(=O)N[C@@H](CCO)c2ccc(Cl)cc2)CCN(c2ncnc3[nH]ccc23)CC1` [Capivasertib] + CCN(CCO)CCCOc1ccc2c(Nc3cc(CC(=O)Nc4cccc(F)c4)[nH]n3)ncnc2c1 [AZD2811] (first compound max 10 µM, 7x7, partner max 1 µM): the Bliss excess in [1] was -0.0475; in [2], -0.0381; in experiment [3], -0.0301; in experiment [4], -0.0355; in [5] it was -0.0092; in [6], -0.0053. The Bliss excess in experiment [7] is -0.012; in [8], -0.0285; in the experiment on EW-22 (Ewing's Sarcoma) it was -0.0366; with A172 (Glioblastoma) it was -0.0079; in [9], -0.0484; in experiment [10] it was 0.0666. The Bliss excess in experiment [11] was 0.002; in [12], -0.051; in experiment [13], 0.0415; in experiment [14] it was -0.0608; with SK-MEL-1 (Melanoma), 0.0563; in [15], 0.0513. Also, the Bliss excess in [16] is -0.0464.
`NC1(C(=O)N[C@@H](CCO)c2ccc(Cl)cc2)CCN(c2ncnc3[nH]ccc23)CC1` [Capivasertib] + COc1nnc2ccc(N3CCC(c4ccc(OCCN5CCN(C)C(=O)[C@H]5C)cc4)CC3)nn12 [AZD5153] (first compound max 10 µM, 7x7, partner max 1 µM): the Bliss excess is 0.057 in experiment [1]; -0.0841 in experiment [2]; -0.0365 in experiment [3]; 0.03 in [4]; 0.0135 in experiment [5]; 0.0866 in [6]. In addition, the Bliss excess was 0.0486 in experiment [7]; -0.0027 in experiment [8]; 0.08 in the experiment on EW-22 (Ewing's Sarcoma); 0.0178 in the experiment on A172 (Glioblastoma); -0.0355 in experiment [9]; 0.0637 in [10]. For the same molecule, the Bliss excess in experiment [11] was 0.007; in [12], -0.0579; in [13], -0.0546; in experiment [14] it was -0.102; in the experiment on SK-MEL-1 (Melanoma) it was 0.0315; in experiment [15], 0.0331. In [16], the Bliss excess came out at 0.0163.
As for `NC1(C(=O)N[C@@H](CCO)c2ccc(Cl)cc2)CCN(c2ncnc3[nH]ccc23)CC1` [Capivasertib] + C[C@@H]1COCCN1C2=NC(=NC(=C2)C3(CC3)[S@](=N)(=O)C)C4=C5C=CNC5=NC=C4 [AZD6738] (first compound max 10 µM, 7x7, partner max 10 µM), the Bliss excess was -0.0276 in experiment [1]; 0.0247 in [2]; -0.0229 in experiment [3]; -0.0681 in experiment [4]; 0.0163 in experiment [5]; -0.0546 in [6]. Besides, the Bliss excess was -0.066 in experiment [7]; -0.0518 in [8]; -0.0047 with EW-22 (Ewing's Sarcoma); -0.0106 with A172 (Glioblastoma); -0.0464 in [9]; -0.0983 in experiment [10]. Also, the Bliss excess in [11] was -0.0249; in experiment [12], 0.0019; in [13], -0.0088; in experiment [14], -0.0936; in the experiment on SK-MEL-1 (Melanoma), 0.0147; in experiment [15], -0.0432. Moreover, the Bliss excess in experiment [16] is -0.024.
Regarding `CS(=O)(=O)CCNCc1ccc(-c2ccc3ncnc(Nc4ccc(OCc5cccc(F)c5)c(Cl)c4)c3c2)o1` [Lapatinib] + Cn1cnc2c(F)c(Nc3ccc(Br)cc3Cl)c(C(=O)NOCCO)cc21 [Selumetinib] (first compound max 10 µM, 7x7, partner max 10 µM), the Bliss excess in [4] is -0.113; in experiment [5] it was -0.0343; with EW-22 (Ewing's Sarcoma) it was -0.0366; in [9], -0.0206; in experiment [10], 0.0151; in experiment [11] it was 0.0147. For the same molecule, the Bliss excess is -0.0923 in experiment [12]; 0.0044 in experiment [13]; 0.0683 in experiment [14]; -0.0654 in the experiment on SK-MEL-1 (Melanoma); -0.0864 in [15].
Turning to `CS(=O)(=O)CCNCc1ccc(-c2ccc3ncnc(Nc4ccc(OCc5cccc(F)c5)c(Cl)c4)c3c2)o1` [Lapatinib] + NC1(c2ccc(-c3nc4ccn5c(=O)[nH]nc5c4cc3-c3ccccc3)cc2)CCC1 [MK-2206] (first compound max 10 µM, 7x7, partner max 10 µM), the Bliss excess is -0.0237 in experiment [2]; 0.0212 in experiment [4]; 0.0068 in experiment [5]; -0.0441 in experiment [7]; 0.0328 in experiment [8]; 0.0308 with EW-22 (Ewing's Sarcoma). Further, the Bliss excess in [9] was 0.0128; in experiment [10], 0.0057; in experiment [11], -0.0321; in experiment [12], -0.0006; in [13], 0.0058; in [14] it was 0.0539. For the same molecule, the results for the Bliss excess (with SK-MEL-1 (Melanoma); in [15]) were -0.0408 and -0.0347, respectively.
Consider `Cc1nc(-c2cn3c(n2)-c2ccc(-c4cnn(C(C)(C)C(N)=O)c4)cc2OCC3)n(C(C)C)n1` [Taselisib] + O=C(Nc1ccc2[nH]nc(-c3ccncc3)c2c1)[C@@H]1CCN(CC(=O)N2CCN(c3ccc(-c4ncccn4)cc3)CC2)C1 [SCH772984] (first compound max 10 µM, 7x7, partner max 5 µM), for which the Bliss excess was -0.0218 in experiment [4]; -0.011 in experiment [5]; 0.0152 in the experiment on EW-22 (Ewing's Sarcoma); 0.0128 in [9]; 0.104 in [10]; -0.0084 in experiment [11]. Further, the Bliss excess in [12] was found to be 0.0609; in experiment [13], 0.0062; in experiment [14] it was 0.0524; with SK-MEL-1 (Melanoma), 0.0839; in experiment [15] it was 0.138.
